In the supplement of paper PMC10307832:

Legend:
Assay in all cases: relative viability (nuclei count vs DMSO), 5 days (fraction); higher = more cells survive
[1] = system: ABC-1
Method in brief: (§1)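 After 5 days of treatment, lung cancer cells in 1536-well plates were fixed and stained in a single step (final 0.05% Triton X-100, 1% formaldehyde, 1 ug/ml Hoechst) and their nuclei counted on 4× images. Treatment had been applied by pin tool the day after seeding as one drug alone or as a fixed anchor-drug dose with five library-drug doses (not always all listed) in √10 steps. Relative viability is the nuclei count of treated wells divided by that of vehicle wells, and values are medians of duplicate plates.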

[2] = system: EPLC-272H
Method in brief: as §1

[3] = system: HARA
Method in brief: as §1

[4] = system: HCC-15
Method in brief: as §1

[5] = system: HCC-44
Method in brief: as §1

[6] = system: HOP-62
Method in brief: as §1

[7] = system: LC-2-ad
Method in brief: as §1

[8] = system: LU99A
Method in brief: as §1

[9] = system: NCI-H1355
Method in brief: as §1

[10] = system: NCI-H1651
Method in brief: as §1

[11] = system: NCI-H1915
Method in brief: as §1

[12] = system: NCI-H1993
Method in brief: as §1

[13] = system: NCI-H2085
Method in brief: as §1

[14] = system: NCI-H2126
Method in brief: as §1

[15] = system: NCI-H2347
Method in brief: as §1

[16] = system: NCI-H650
Method in brief: as §1

[17] = system: NCI-H838
Method in brief: as §1

[18] = system: PC-14
Method in brief: as §1

For COc1cc2nccc(Oc3ccc(NC(=O)Nc4cc(C)on4)c(Cl)c3)c2cc1OC [Tivozanib] + NC(=O)Nc1cc(-c2cccc(F)c2)sc1C(=O)N[C@H]1CCCNC1 [AZD7762] (partner 0.2 µM), the relative viability ([1]; first compound 0.005 µM) was 1.05, the relative viability ([1]; first compound 0.01581 µM) was 0.865 and the relative viability ([1]; first compound 0.05 µM) was 0.895. For the same compound, the relative viability ([1]; first compound 0.1581 µM) was 1.12, the relative viability ([1]; first compound 0.5 µM) was 0.785 and the relative viability ([2]; first compound 0.005 µM) was 0.147. For the same compound, the relative viability ([2]; first compound 0.01581 µM) was 0.159, the relative viability ([2]; first compound 0.05 µM) was 0.186 and the relative viability ([2]; first compound 0.1581 µM) was 0.203. The relative viability ([2]; first compound 0.5 µM) was 0.184, the relative viability ([3]; first compound 0.005 µM) was 0.268 and the relative viability ([3]; first compound 0.01581 µM) was 0.335. It also gave a relative viability ([3]; first compound 0.05 µM) of 0.424, a relative viability ([3]; first compound 0.1581 µM) of 0.231 and a relative viability ([3]; first compound 0.5 µM) of 0.267. For the same compound, the relative viability ([4]; first compound 0.005 µM) was 1.18, the relative viability ([4]; first compound 0.01581 µM) was 1.28 and the relative viability ([4]; first compound 0.05 µM) was 1.34. The relative viability ([4]; first compound 0.1581 µM) was 1.29, the relative viability ([4]; first compound 0.5 µM) was 1.33 and the relative viability ([5]; first compound 0.005 µM) was 0.996. For the same compound, the relative viability ([5]; first compound 0.01581 µM) was 0.963, the relative viability ([5]; first compound 0.05 µM) was 1.01 and the relative viability ([5]; first compound 0.1581 µM) was 1.09. It also gave a relative viability ([5]; first compound 0.5 µM) of 1.01, a relative viability ([6]; first compound 0.005 µM) of 0.559 and a relative viability ([6]; first compound 0.01581 µM) of 0.646. The relative viability ([6]; first compound 0.05 µM) was 0.383, the relative viability ([6]; first compound 0.1581 µM) was 0.429 and the relative viability ([6]; first compound 0.5 µM) was 0.467. For the same compound, the relative viability ([7]; first compound 0.005 µM) was 0.821, the relative viability ([7]; first compound 0.01581 µM) was 0.846 and the relative viability ([7]; first compound 0.05 µM) was 0.856. The relative viability ([7]; first compound 0.1581 µM) was 0.881, the relative viability ([7]; first compound 0.5 µM) was 0.815 and the relative viability ([8]; first compound 0.005 µM) was 0.337. For the same compound, the relative viability ([8]; first compound 0.01581 µM) was 0.342, the relative viability ([8]; first compound 0.05 µM) was 0.34 and the relative viability ([8]; first compound 0.1581 µM) was 0.27. The relative viability ([8]; first compound 0.5 µM) was 0.288, the relative viability ([9]; first compound 0.005 µM) was 0.737 and the relative viability ([9]; first compound 0.01581 µM) was 0.731. It also gave a relative viability ([9]; first compound 0.05 µM) of 0.799, a relative viability ([9]; first compound 0.1581 µM) of 0.606 and a relative viability ([9]; first compound 0.5 µM) of 0.716. For the same compound, the relative viability ([10]; first compound 0.005 µM) was 0.381, the relative viability ([10]; first compound 0.01581 µM) was 0.429 and the relative viability ([10]; first compound 0.05 µM) was 0.551. The relative viability ([10]; first compound 0.1581 µM) was 0.301, the relative viability ([10]; first compound 0.5 µM) was 0.421 and the relative viability ([11]; first compound 0.005 µM) was 0.728. For the same compound, the relative viability ([11]; first compound 0.01581 µM) was 0.687, the relative viability ([11]; first compound 0.05 µM) was 0.711 and the relative viability ([11]; first compound 0.1581 µM) was 0.717. The relative viability ([11]; first compound 0.5 µM) was 0.618, the relative viability ([12]; first compound 0.005 µM) was 0.722 and the relative viability ([12]; first compound 0.01581 µM) was 0.714. For the same compound, the relative viability ([12]; first compound 0.05 µM) was 0.968, the relative viability ([12]; first compound 0.1581 µM) was 0.631 and the relative viability ([12]; first compound 0.5 µM) was 0.664. For the same compound, the relative viability ([13]; first compound 0.005 µM) was 0.881, the relative viability ([13]; first compound 0.01581 µM) was 0.862 and the relative viability ([13]; first compound 0.05 µM) was 1.05. For the same compound, the relative viability ([13]; first compound 0.1581 µM) was 0.912, the relative viability ([13]; first compound 0.5 µM) was 0.887 and the relative viability ([14]; first compound 0.005 µM) was 1.06. For the same compound, the relative viability ([14]; first compound 0.01581 µM) was 0.936, the relative viability ([14]; first compound 0.05 µM) was 1.02 and the relative viability ([14]; first compound 0.1581 µM) was 0.732. For the same compound, the relative viability ([14]; first compound 0.5 µM) was 1.01, the relative viability ([15]; first compound 0.005 µM) was 0.73 and the relative viability ([15]; first compound 0.01581 µM) was 0.836. For the same compound, the relative viability ([15]; first compound 0.05 µM) was 0.92, the relative viability ([15]; first compound 0.1581 µM) was 0.685 and the relative viability ([15]; first compound 0.5 µM) was 0.709. The relative viability ([16]; first compound 0.005 µM) was 0.771, the relative viability ([16]; first compound 0.01581 µM) was 1.08 and the relative viability ([16]; first compound 0.05 µM) was 0.976. The relative viability ([16]; first compound 0.1581 µM) was 0.958, the relative viability ([16]; first compound 0.5 µM) was 0.683 and the relative viability ([17]; first compound 0.005 µM) was 0.918. The relative viability ([17]; first compound 0.01581 µM) was 0.895, the relative viability ([17]; first compound 0.05 µM) was 0.973 and the relative viability ([17]; first compound 0.1581 µM) was 1.04. It also gave a relative viability ([17]; first compound 0.5 µM) of 0.95, a relative viability ([18]; first compound 0.005 µM) of 0.333 and a relative viability ([18]; first compound 0.01581 µM) of 0.338. The relative viability ([18]; first compound 0.05 µM) was 0.369, the relative viability ([18]; first compound 0.1581 µM) was 0.385 and the relative viability ([18]; first compound 0.5 µM) was 0.375.
